Data published in patent US7754758B2, “Pyrrolidine derivatives acting as CCR3-receptor antagonists” (Novartis AG, priority 2004, dated 2010).

Target: T1, human CCR-3 (Homo sapiens, UniProt P51677)
T1 construct: expressed in transfected cells; host or cells: rat basophil leukaemia (RBL-2H3) cells, membrane preparation
T1 sequence (P51677 1-355): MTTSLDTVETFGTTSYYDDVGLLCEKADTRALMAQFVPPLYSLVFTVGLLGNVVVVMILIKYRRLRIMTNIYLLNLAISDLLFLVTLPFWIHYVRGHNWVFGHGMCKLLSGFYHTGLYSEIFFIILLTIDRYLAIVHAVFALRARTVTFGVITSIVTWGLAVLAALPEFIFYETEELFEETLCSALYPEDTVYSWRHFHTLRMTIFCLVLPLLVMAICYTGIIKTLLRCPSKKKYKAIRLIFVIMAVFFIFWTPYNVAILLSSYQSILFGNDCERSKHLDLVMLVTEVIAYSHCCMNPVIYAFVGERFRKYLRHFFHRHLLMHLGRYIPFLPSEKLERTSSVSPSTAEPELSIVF
Experiment: [125I]-human eotaxin binding to CCR-3, SPA assay
Details: inhibition of [125I]-human eotaxin binding; membranes of RBL-2H3 cells stably expressing CCR3; 4 hours at room temperature
Text: Recombinant cells expressing human CCR-3 are captured by wheatgerm agglutinin (WGA) polyvinyltoluidene (PVT) SPA beads (available from Amersham), through a specific interaction between the WGA and carbohydrate residues of glycoproteins on the surface of the cells. [^125I]-human eotaxin (available from Amersham) binds specifically to CCR-3 receptors bringing the [^125I]-human eotaxin in close proximity to the SPA beads. Emitted â-particles from the [^125I]-human eotaxin excite, by its proximity, the fluorophore in the beads and produce light.
Preparation of Assay Buffer: 5.96 g HEPES and 7.0 g sodium chloride are dissolved in distilled water and 1 M aqueous CaCl2 (1 ml) and 1M aqueous MgCl2 (5 ml) are added. The pH is adjusted to 7.6 with NaOH and the solution made to a final volume of 1 l using distilled water. 5 g bovine serum albumin and 0.1 g sodium azide are then dissolved in the solution and the resulting buffer stored at 4° C. […]
Preparation of membranes: Confluent rat basophil leukaemia (RBL-2H3) cells stably expressing CCR3 are removed from tissue culture flasks using enzyme-free cell dissociation buffer and resuspended in phosphate-buffered saline. […] The resulting scintillations are counted using a Canberra Packard TopCount, each well being counted for 1 minute. […]

Row | Structure (SMILES) | IC50 [nM]
1 | O=C(NCCCN1CCC(Oc2ccc(F)cc2)C1)Nc1ccc(F)c(F)c1 (centres unmarked) [Example 3] | 446
2 | COc1cccc(NC(=O)NCCCN2CCC(Oc3ccc(F)cc3)C2)c1 (centres unmarked) [Example 2, 1-{3-[3-(4-fluorophenoxy)pyrrolidine-1-yl]propyl}-3-(3-methoxyphenyl)-urea] | 270
